Experiment: Stability in aqueous solution (extent of free base precipitation from an aqueous solution of the test compound)
Assay type: physicochemical
Conditions: known temperature and known period (not specified), 富马酸盐

## COc1cc2c3c(c1O)-c1c(ccc(OC)c1OC)C[C@@H]3N(C)CC2 [Ⅱˉ表示的富马酸根的式(Ⅲ)化合物, 紫堇定碱富马酸盐]
  aqueous solution stability: 特别稳定 and 异常的稳定

From patent CN103910677A, “紫堇定碱衍生物的盐” (Shanghai Yizhi Pharmaceutical Technology Co Ltd, priority 2013, dated 2014)
